Measured values reported in the C3SDB collision cross section collection.

Conditions: instrument: DT, stepped-field

SMILES | collision cross section (N2) ([M+H]+) [Å²] | collision cross section (N2) ([M+Na]+) [Å²]
Nc1ncnc2c1ncn2[C@@H]1O[C@H](COP(=O)(O)OP(=O)(O)O)[C@@H](O)[C@H]1O [Adenosine 5' Diphosphate] | 188.61 | 196.92
NC(=O)NC1NC(=O)NC1=O (stereo not given) [Allantoin] | – | 145.61
O=C1c2ccccc2C(=O)c2ccccc21 [Anthraquinone] | 141.89 | –
CCCCCCCCCCCCCCCCCCCC(=O)O [Arachidic Acid] | – | 199.97
C[C@@H]1O[C@@H](O[C@H]2C(=O)c3c(O)cc(O)cc3O[C@@H]2c2ccc(O)c(O)c2)[C@H](O)[C@H](O)[C@H]1O [Astilbin] | 205.87 | 212.64
C=C1C2CCC(C2)C1(C)C (stereo not given) [Camphene] | 130.63 | 133.01
CCCCC[C@H](O)/C=C/[C@H]1CC2CC(C2)[C@@H]1C/C=C\CCCC(=O)O [Carbocyclic Thromboxane A2] | – | 203.6
OC[C@H]1O[C@@H](O[C@H]2[C@H](O)[C@@H](O)[C@H](O[C@H]3[C@H](O)[C@@H](O)[C@H](O[C@H]4[C@H](O)[C@@H](O)[C@H](O[C@H]5[C@H](O)[C@@H](O)[C@H](O[C@H]6[C@H](O)[C@@H](O)[C@H](O)O[C@@H]6CO)O[C@@H]5CO)O[C@@H]4CO)O[C@@H]3CO)O[C@@H]2CO)[C@H](O)[C@@H](O)[C@@H]1O [Cellohexaose] | – | 283.13
OC[C@H]1O[C@@H](O[C@H]2[C@H](O)[C@@H](O)[C@H](O[C@H]3[C@H](O)[C@@H](O)[C@H](O[C@H]4[C@H](O)[C@@H](O)[C@H](O[C@H]5[C@H](O)[C@@H](O)C(O)O[C@@H]5CO)O[C@@H]4CO)O[C@@H]3CO)O[C@@H]2CO)[C@H](O)[C@@H](O)[C@@H]1O (stereo not given in full) [Cellopentaose] | – | 251.04
O=C/C=C/c1ccccc1 [Cinnamaldehyde] | 134.25 | –
O=C(O)/C=C/c1ccccc1 [Cinnamic Acid] | 145.31 | –
O=C(O)/C=C(/CC(=O)O)C(=O)O [Cis-Aconitic Acid] | 152.21 | 146.78
Nc1ccn([C@@H]2O[C@H](CO)[C@@H](OP(=O)(O)O)[C@H]2O)c(=O)n1 [Cytidine 3'-monophosphate] | 170.98 | 174.9
Nc1ccnc(=O)[nH]1 [Cytosine] | 121.58 | –
OC1OC[C@@H](O)[C@H](O)[C@H]1O (stereo partly drawn) [D-(+)-Xylose] | – | 132.07
O=C[C@@H](O)[C@H](O)[C@H](O)CO [D-Arabinose] | – | 143.27
O=C[C@H](O)[C@H](O)COP(=O)(O)O [D-Erythrose 4-Phosphate] | – | 153.89
N[C@@H]1C(O)O[C@H](CO)[C@@H](O)[C@@H]1O (stereo partly drawn) [D-Mannosamine] | – | 146.73
O=C(CO)[C@@H](O)[C@H](O)[C@H](O)[C@H](O)CO [D-Sedoheptulose] | – | 150.73
O=C(CO)[C@@H](O)[C@H](O)COP(=O)(O)O [D-Xylulose 5-Phosphate] | – | 151.4
CN(C)C(=O)Nc1ccc(Cl)c(Cl)c1 [Diuron] | 153.32 | 162.7
Cc1cc(O)c2c(c1)C(=O)c1cc(O)cc(O)c1C2=O [Emodin] | 161.3 | –
O=C1C[C@@H](c2ccc(O)c(O)c2)Oc2cc(O)cc(O)c21 [Eriodictyol] | 170.48 | 182.17
OC[C@@H](O)[C@H](O)[C@H](O)[C@@H](O)CO [Galactitol] | – | 145.91
O=c1c(-c2ccc(O)cc2)coc2cc(O)cc(O)c12 [Genistein] | 163.3 | 177.67
O=C(O)[C@H](O)[C@@H](O)[C@H](O)[C@H](O)CO [Gluconic Acid] | 141.89 | 149.77
O=C(O)CNCP(=O)(O)O [Glyphosate] | – | 141.17

SMILES | collision cross section (N2) ([M+H]+) [Å²] | collision cross section (N2) ([M+Na]+) [Å²]
NC(N)=NCC(=O)O [Guanidinoacetic Acid] | 126.88 | –
CN(C)c1nc(=O)n(C2CCCCC2)c(=O)n1C [Hexazinone] | 163.17 | 179.49
CC(C)C1(C)N=C(c2ncccc2C(=O)O)NC1=O (stereo not given) [Imazapyr] | 157.81 | 176.07
OC1C(O)C(O)C(O)C(O)C1O (stereo not given) [Inositol] | – | 151.95
O=C(O)CC(C(=O)O)C(O)C(=O)O (stereo not given) [Isocitric Acid] | – | 146.78
COc1cc(-c2oc3cc(O)cc(O)c3c(=O)c2O)ccc1O [Isorhamnetin] | 172.96 | 195.91
N[C@@H](CCCC(=O)O)C(=O)O [L-2-Aminoadipic Acid] | 136.36 | 142.23
NC(=O)C[C@H](N)C(=O)O [L-Asparagine] | 131.54 | 131.94
N[C@@H](CS)C(=O)O [L-Cysteine] | 149.57 | 151.34
CS(=N)(=O)CC[C@H](N)C(=O)O (stereo partly drawn) [L-Methionine sulfoximine] | 139.3 | 143.1
N[C@@H](Cn1ccc(=O)c(O)c1)C(=O)O [L-Mimosine] | 143.47 | –
O=C(CO)[C@@H](O)[C@@H](O)CO [L-Ribulose] | – | 132.81
O=C(O)[C@H](O)[C@@H](O)CO [L-Threonic Acid] | – | 136.93
N[C@H](CO)Cc1cnc[nH]1 [L-histidinol] | 130.9 | 136.57
CCCCCCCCCCCCC(=O)OCC(O)COP(=O)([O-])OCC[N+](C)(C)C (stereo not given) [LPC 13:0] | 220.71 | 225.41
CCCCCCCCCCCCCC(=O)OC[C@@H](O)COP(=O)([O-])OCC[N+](C)(C)C [LPC 14:0] | 222 | 225.77
CCCCCCCCCCCCCCCCCCC(=O)OCC(O)COP(=O)([O-])OCC[N+](C)(C)C (stereo not given) [LPC 19:0] | – | 244.1
CCCCCCCCCCCCCCCCCCCCCCCC(=O)OC[C@@H](O)COP(=O)([O-])OCC[N+](C)(C)C [LPC(24:0)] | – | 262.43
CC(=O)N[C@H]1[C@H](O[C@H]2[C@@H](O)[C@@H](CO)O[C@@H](O[C@H]3[C@H](O)[C@@H](O)C(O)O[C@@H]3CO)[C@@H]2O)O[C@H](CO)[C@@H](O)[C@@H]1O[C@@H]1O[C@H](CO)[C@H](O)[C@H](O)[C@H]1O (stereo not given in full) [Lacto-N-Tetraose] | – | 239.18
CC(=O)NC1[C@H](OC2[C@@H](O)[C@H](OC([C@H](O)CO)[C@@H](O)[C@@H](O)C=O)O[C@H](COC3O[C@H](CO)[C@@H](O[C@@H]4O[C@H](CO)[C@H](O)[C@H](O)[C@H]4O)[C@H](O)[C@H]3NC(C)=O)[C@H]2O)O[C@H](CO)[C@@H](O)[C@@H]1OC1O[C@H](CO)[C@H](O)[C@H](O)[C@H]1O (stereo not given in full) [Lacto-N-hexaose] | – | 301.6
CCCCC/C=C\C\C=C/C=C/C=C/[C@@H](SC[C@H](N)C(=O)NCC(=O)O)[C@@H](O)CCCC(=O)O [Leukotriene D4] | 234.1 | 238.7
CCCCC/C=C\C\C=C/C=C/C=C/[C@@H](SC[C@H](N)C(=O)O)[C@@H](O)CCCC(=O)O [Leukotriene E4] | 213.2 | 227.9
CCCCCCCCCCCCCCCCCCCCCCCC(=O)O [Lignoceric Acid] | – | 216.86
C=CC(C)(O)CCC=C(C)C (stereo not given) [Linalool] | – | 140.55
COC(=O)C1=CO[C@@H](O[C@@H]2O[C@H](CO)[C@@H](O)[C@H](O)[C@H]2O)[C@@H]2[C@@H](C)[C@@H](O)C[C@H]12 [Loganin] | – | 195.65
OC[C@H]1O[C@H](O[C@H]2[C@H](O)[C@@H](O)[C@@H](O[C@H]3[C@H](O)[C@@H](O)[C@@H](O[C@H]4[C@H](O)[C@@H](O)[C@@H](O[C@H]5[C@H](O)[C@@H](O)[C@@H](O[C@H]6[C@H](O)[C@@H](O)C(O)O[C@@H]6CO)O[C@@H]5CO)O[C@@H]4CO)O[C@@H]3CO)O[C@@H]2CO)[C@H](O)[C@@H](O)[C@@H]1O (stereo not given in full) [Maltohexaose] | – | 279.7
OC[C@H]1O[C@H](O[C@H]2[C@H](O)[C@@H](O)[C@@H](O[C@H]3[C@H](O)[C@@H](O)[C@@H](O[C@H]4[C@H](O)[C@@H](O)[C@@H](O)O[C@@H]4CO)O[C@@H]3CO)O[C@@H]2CO)[C@H](O)[C@@H](O)[C@@H]1O [Maltotetraose] | – | 230.47
